Drawing on patent publication US12049439B2 (OrsoBio, Inc., priority 2018, dated 2024), this text covers EC50 for 27 compounds.

Some results are limits rather than exact numbers.

The test deals with PC-3 cells. The test is described as follows: PC-3 Oxygen Rate Consumption (OCR) Assay. Format: cell-based. To be noted: Homo sapiens, 0.05 h, medium with 2% FBS, OCR at 3-min post-injection normalized to % increase over DMSO-treated cells, concentration for half-maximal OCR increase, read-out: EC50-PC3-OCR-FBS-3min. On the procedure: PC-3 Oxygen Rate Consumption (OCR) Assay Procedure:
One day before the assay, PC-3 cells were seeded at 2.5×10^4 cells/160 μL/well in a 96-well XFe96 cell plate, part of a FlexPak containing a cell plate and a cartridge (Agilent, Sunnyvale, CA). The cells were incubated overnight at 37° C. in a 5% CO2 and 90% humidity incubator with F12K culture medium (ThermoFisher Scientific/Invitrogen, Grand Island, NY) containing 10% FBS and 1% penicillin/streptomycin. On the day of the assay, the cells were washed twice with 300 µL/well Medium A [XF assay medium (Agilent) supplemented 10 mM glucose, 1 mM pyruvate, and 2% fetal bovine serum (FBS)], and incubated with 175 µL/well Media A for 1 hr in a 37° C., non-CO2 incubator prior to the measurement of cellular respiration. Compounds of interests were prepared in 1:2 serial dilutions with 100% DMSO and then further diluted into 8× working stock with Media A prior to being loaded to Injection Port A on a XFe96 Analyzer (Agilent). Six replicates were used for each treatment. The cartridge was calibrated in the XFe96 Analyzer 30 minute prior to the measurement of cellular respiration. Basal levels of OCR were measured three times, each using a “3-minute mixing/3-minute measurement” program. The compound effect was measured immediately after compound injection from Injection Port A, and OCR was monitored continuously 10 times, each time using a “1-minute mixing/2-minute measurement” program for a total of 30 minutes post compound injection. The level of OCR at 3-min post-injection was normalized to % increase over DMSO-treated cells. The concentration of compound required to reach the half-maximal OCR increase was defined as EC50 Table 2 contains PC3 OCR EC50 values for the compounds disclosed.
As for `CS(=O)(=O)Nc1cc(F)ccc1C(=O)NC12CC(C(F)(F)F)(C1)C2` [Example 1, 4-fluoro-2-(methylsulfonamido)-N-(3-(trifluoromethyl)bicyclo[1.1.1]pentan-1-yl)benzamide], the concentration for a half-maximal effect (EC50) came to 13.1 µM.

On to `O=C(NC12CC(C(F)(F)F)(C1)C2)c1ccc(F)cc1NS(=O)(=O)C1CC1` [Example 2, 2-(cyclopropanesulfonamido)-4-fluoro-N-(3-(trifluoromethyl)bicyclo[1.1.1]pentan-1-yl)benzamide], for which the EC50 is 3.65 µM.

As to `CC(C)(C)c1ccc(S(=O)(=O)Nc2cc(F)ccc2C(=O)NC23CC(C(F)(F)F)(C2)C3)cc1` [Example 3, 2-((4-(tert-butyl)phenyl)sulfonamido)-4-fluoro-N-(3-(trifluoromethyl)bicyclo[1.1.1]pentan-1-yl)benzamide], the EC50 is 0.785 µM.

On to `CC(C)(C)c1ccc(S(=O)(=O)Nc2cc(C(F)(F)F)ccc2C(=O)NC23CC(C(F)(F)F)(C2)C3)cc1` [Example 4, 2-((4-(tert-butyl)phenyl)sulfonamido)-4-(trifluoromethyl)-N-(3-(trifluoromethyl)bicyclo[1.1.1]pentan-1-yl)benzamide], for which the EC50 is 0.619 µM.

Turning to `CS(=O)(=O)c1ccc(S(=O)(=O)Nc2cc(F)ccc2C(=O)NC23CC(C(F)(F)F)(C2)C3)cc1` [Example 5, 4-fluoro-2-((4-(methylsulfonyl)phenyl)sulfonamido)-N-(3-(trifluoromethyl)bicyclo[1.1.1]pentan-1-yl)benzamide], the EC50 was 5.8 µM.

Turning to `O=C(NC12CC(C(F)(F)F)(C1)C2)c1ccc(C(F)(F)F)cc1NS(=O)(=O)c1ccc(OC(F)(F)F)cc1` [Example 6, 2-((4-(trifluoromethoxy)phenyl)sulfonamido)-4-(trifluoromethyl)-N-(3-(trifluoromethyl)bicyclo[1.1.1]pentan-1-yl)benzamide], the EC50 was found to be 0.267 µM.

On to `CC(C)(C)c1ccc(S(=O)(=O)Nc2cc(C(F)(F)F)ccc2C(=O)NC23CC(C#N)(C2)C3)cc1` [Example 7, 2-((4-(tert-butyl)phenyl)sulfonamido)-N-(3-cyanobicyclo[1.1.1]pentan-1-yl)-4-(trifluoromethyl)benzamide], for which the EC50 worked out at 0.813 µM.

On to `CS(=O)(=O)c1ccc(S(=O)(=O)Nc2cc(C(F)(F)F)ccc2C(=O)NC23CC(C(F)(F)F)(C2)C3)cc1` [Example 8, 2-((4-(methylsulfonyl)phenyl)sulfonamido)-4-(trifluoromethyl)-N-(3-(trifluoromethyl)bicyclo[1.1.1]pentan-1-yl)benzamide], for which the concentration for a half-maximal effect (EC50) was found to be 4.1 µM.

`CS(=O)(=O)c1ccc(S(=O)(=O)Nc2cc(C(F)(F)F)ccc2C(=O)NC23CCC(F)(CC2)CC3)cc1` [Example 9, N-(4-fluorobicyclo[2.2.2]octan-1-yl)-2-((4-(methylsulfonyl)phenyl)sulfonamido)-4-(trifluoromethyl)benzamide]: the EC50 worked out at 5.56 µM.

For the compound `CS(=O)(=O)c1ccc(S(=O)(=O)Nc2cc(C(F)(F)F)ccc2C(=O)NC23CC4CC(CC(C4)C2)C3)cc1` [Example 10, N-((3s,5s,7s)-adamantan-1-yl)-2-((4-(methylsulfonyl)phenyl)sulfonamido)-4-(trifluoromethyl)benzamide], the EC50 is 1.22 µM.

For `CS(=O)(=O)c1ccc(S(=O)(=O)Nc2cc(C(F)(F)F)ccc2C(=O)NC23CC(c4ccccc4)(C2)C3)cc1` [Example 11, 2-((4-(methylsulfonyl)phenyl)sulfonamido)-N-(3-phenylbicyclo[1.1.1]pentan-1-yl)-4-(trifluoromethyl)benzamide], the EC50 was 1.92 µM.

Consider `CS(=O)(=O)c1ccc(S(=O)(=O)Nc2cc(F)ccc2C(=O)NC23CC(c4ccccc4)(C2)C3)cc1` [Example 12, 4-fluoro-2-((4-(methylsulfonyl)phenyl)sulfonamido)-N-(3-phenylbicyclo[1.1.1]pentan-1-yl)benzamide], for which the EC50 was determined as 6.88 µM.

As for `CC(C)(C)c1ccc(C(=O)NC23CC(C(F)(F)F)(C2)C3)c(NS(=O)(=O)c2ccc(S(C)(=O)=O)cc2)c1` [Example 13, 4-(tert-butyl)-2-((4-(methylsulfonyl)phenyl)sulfonamido)-N-(3-(trifluoromethyl)bicyclo[1.1.1]pentan-1-yl)benzamide], the EC50 turned out to be 5.72 µM.

On to `CC(C)(C)c1ccc(C(=O)NC23CC(C#N)(C2)C3)c(NS(=O)(=O)c2ccc(S(C)(=O)=O)cc2)c1` [Example 14, 4-(tert-butyl)-N-(3-cyanobicyclo[1.1.1]pentan-1-yl)-2-((4-(methylsulfonyl)phenyl)sulfonamido)benzamide], for which the 50% effective concentration (EC50) is no less than 20 µM.

Take `CC(C)(C)c1ccc(C(=O)NC23CC(c4ccccc4)(C2)C3)c(NS(=O)(=O)c2ccc(S(C)(=O)=O)cc2)c1` [Example 15, 4-(tert-butyl)-2-((4-(methylsulfonyl)phenyl)sulfonamido)-N-(3-phenylbicyclo[1.1.1]pentan-1-yl)benzamide]: the EC50 turned out to be 10.9 µM.

For the compound `CC(C)(C)c1ccc(S(=O)(=O)Nc2cc(S(C)(=O)=O)ccc2C(=O)NC23CC(C(F)(F)F)(C2)C3)cc1` [Example 16, 2-((4-(tert-butyl)phenyl)sulfonamido)-4-(methylsulfonyl)-N-(3-(trifluoromethyl)bicyclo[1.1.1]pentan-1-yl)benzamide], the EC50 worked out at 5.55 µM.

As for `O=C(NC12CC(C(F)(F)F)(C1)C2)c1ccc(C(F)(F)F)cc1NS(=O)(=O)c1ccc(-n2cnnn2)cc1` [Example 17, 2-((4-(1H-tetrazol-1-yl)phenyl)sulfonamido)-4-(trifluoromethyl)-N-(3-(trifluoromethyl)bicyclo[1.1.1]pentan-1-yl)benzamide], the 50% effective concentration (EC50) was 5.83 µM.

For `CS(=O)(=O)c1ccc(S(=O)(=O)Nc2cc(C(F)(F)F)ccc2C(=O)NC23CC(C#N)(C2)C3)cc1` [Example 18, N-(3-cyanobicyclo[1.1.1]pentan-1-yl)-2-((4-(methylsulfonyl)phenyl)sulfonamido)-4-(trifluoromethyl)benzamide], the half-maximal effective concentration (EC50) amounted to 114 µM.

With `Cn1cc(S(=O)(=O)Nc2cc(C(F)(F)F)ccc2C(=O)NC23CC(C(F)(F)F)(C2)C3)cn1` [Example 19, 2-((1-methyl-1H-pyrazole)-4-sulfonamido)-4-(trifluoromethyl)-N-(3-(trifluoromethyl)bicyclo[1.1.1]pentan-1-yl)benzamide], the EC50 came out at 6.41 µM.

As for `CS(=O)(=O)c1ccc(S(=O)(=O)Nc2cc(C(F)(F)F)ccc2C(=O)NC23CC(F)(C2)C3)cc1` [Example 20, N-(3-fluorobicyclo[1.1.1]pentan-1-yl)-2-((4-(methylsulfonyl)phenyl)sulfonamido)-4-(trifluoromethyl)benzamide], the EC50 was 14.3 µM.

On to `CS(=O)(=O)c1ccc(S(=O)(=O)Nc2cc(F)ccc2C(=O)NC23CC(F)(C2)C3)cc1` [Example 21, 4-fluoro-N-(3-fluorobicyclo[1.1.1]pentan-1-yl)-2-((4-(methylsulfonyl)phenyl)sulfonamido)benzamide], for which the EC50 amounted to 38.9 µM.

Take `CS(=O)(=O)c1cccc(S(=O)(=O)Nc2cc(F)ccc2C(=O)NC23CC(C(F)(F)F)(C2)C3)c1` [Example 22, 4-fluoro-2-((3-(methylsulfonyl)phenyl)sulfonamido)-N-(3-(trifluoromethyl)bicyclo[1.1.1]pentan-1-yl)benzamide]: the EC50 worked out at 9.97 µM.

On to `CS(=O)(=O)c1ccc(S(=O)(=O)Nc2cc(C(F)(F)F)ccc2C(=O)NC23CC(C2)C3)cc1` [Example 23, N-(bicyclo[1.1.1]pentan-1-yl)-2-((4-(methylsulfonyl)phenyl)sulfonamido)-4-(trifluoromethyl)benzamide], for which the EC50 was 12 µM.

Turning to `CCS(=O)(=O)c1ccc(S(=O)(=O)Nc2cc(C(F)(F)F)ccc2C(=O)NC23CC(C(F)(F)F)(C2)C3)cc1` [Example 24, 2-((4-(ethylsulfonyl)phenyl)sulfonamido)-4-(trifluoromethyl)-N-(3-(trifluoromethyl)bicyclo[1.1.1]pentan-1-yl)benzamide], the EC50 came to 3.32 µM.

`CCS(=O)(=O)c1ccc(S(=O)(=O)Nc2cc(C(F)(F)F)ccc2C(=O)NC23CC(C#N)(C2)C3)cc1` [Example 25, N-(3-cyanobicyclo[1.1.1]pentan-1-yl)-2-((4-(ethylsulfonyl)phenyl)sulfonamido)-4-(trifluoromethyl)benzamide]: the EC50 is no less than 50 µM.

For the compound `CCS(=O)(=O)c1ccc(S(=O)(=O)Nc2cc(C(F)(F)F)ccc2C(=O)NC23CC(F)(C2)C3)cc1` [Example 26, 2-((4-(ethylsulfonyl)phenyl)sulfonamido)-N-(3-fluorobicyclo[1.1.1]pentan-1-yl)-4-(trifluoromethyl)benzamide], the EC50 was 6.94 µM.

In the case of `CCS(=O)(=O)c1ccc(S(=O)(=O)Nc2cc(C(F)(F)F)ccc2C(=O)NC23CC(C2)C3)cc1` [Example 27, N-(bicyclo[1.1.1]pentan-1-yl)-2-((4-(ethylsulfonyl)phenyl)sulfonamido)-4-(trifluoromethyl)benzamide], the EC50 is 4.5 µM.
